Here are results for four compounds from BindingDB's records for doi:10.1046/j.1471-4159.2000.751294.x (University of California, 2000).

pIC50: −log10 of the molar value.

The experiment in a line: Displacement of [3H]IMI from nicotinic acetylcholine receptor in Aphis craccivora (cowpea aphid) whole body membrane after 90 min by filter binding assay.
The compound `C/N=C(\NCc1ccc(Cl)nc1)N[N+](=O)[O-]` showed a pIC50 of 8.36.
Turning to `O=[N+]([O-])/N=C1\NCOCN1Cc1ccc(Cl)nc1`, the pIC50 was 7.82.
In turn, `O=[N+]([O-])/N=C1\NCOCN1Cc1cnc(Cl)s1` [DESMETHYLTHIAMETHOXAM] gave a pIC50 of 7.96.
Turning to `O=[N+]([O-])/N=C1\NCCN1Cc1cnc(Cl)s1` [IMIDACLOTHIZ], the pIC50 is 8.09.
